These results are taken from patent US20050282755A1, “Compositions having antimicrobial activity and uses thereof” (priority 2004, published 2005).

Values after ≈ are worked out from the molar mass of the structure shown. Where two headings read alike, the source gives them in different places. Non-standard residues stand in square brackets, D forms with d. Residues, ends and D or L forms follow the SMILES beside them. *: point of attachment. Lauroyl = CCCCCCCCCCCC(=O)*; dOrn = NCCC[C@@H](N)C(=O)O

The subject of data set [1] is Propionibacterium acnes ATCC 6919. Type of data set: cell-based. The essentials:
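MIC by non-standard broth microdilution in reinforced Clostridial broth, log-phase P. acnes inoculum at 5×10^5 to 1×10^6 CFU/mL. Plates were held anaerobically 48–72 h at 37° C; MIC was the lowest peptide concentration with no visible turbidity relative to the no-peptide control.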

Data set [2] concerns Salmonella dublin (Lane). The data set can be described thus: MIC, NCCLS M7-A6 broth microdilution (Table 9, no superscript). Type of data set: cell-based. The method in brief:
(§1)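 Broth microdilution in cation-adjusted Mueller Hinton broth, log-phase inoculum giving 5×10^5 to 1×10^6 CFU/milliliter per well. Overnight incubation at 37° C. MIC taken as lowest peptide concentration with no visible turbidity versus a no-peptide control.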

Data set [3] deals with Candida albicans ATCC 18804. Kind of data set: MIC in yeasts, NCCLS M27-A2 broth microdilution, RPMI 1640 (Table 9, letter e). It counts as cell-based. Particulars: ATCC 18804. The essentials:
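Plates incubated 24 to 48 hours at 37° C, with yeast seeded at 0.5×10^3–2.5×10^3 CFU/milliliter final in RPMI 1640 (glutamine, phenol red indicator). MIC was read as the lowest peptide concentration showing no visible growth.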
(In general: Broth dilution looks for growth in wells or tubes with falling amounts of substance.)

Data set [4] has as its system Pseudomonas aeruginosa ATCC 27853. Particulars: ATCC 27853, pH 7.4.
Data set [5] deals with Staphylococcus aureus ATCC 29213. Kind of data set: MIC, NCCLS M7-A6 broth microdilution, cation-adjusted Mueller Hinton broth (Table 9, no superscript). Type of data set: cell-based. Particulars: ATCC 29213. The method in brief:
as §1

Data set [6] concerns Staphylococcus epidermidis ATCC 12228. Particulars: ATCC 12228, pH 7.4.
Data set [7] relates to P. acnes. The data set can be described thus: Mouse skin assay, bactericidal activity on excised Balb/c skin. Type of data set: cell-based, Propionibacterium acnes. Particulars: Incubation time 120 min; P. acnes untreated 0.9 × 10^8 cfu/ml.
The test system of data set [8] is S. aureus (Rosenbach). The data set can be described thus: Broth microdilution assay for MIC (20% TSB, 50 mM Na2CO3, 1 mM MgCl2), Table 4A. Type of data set: cell-based, Staphylococcus aureus. Particulars: 3 log or greater reduction in bacterial growth over 16 hours. As for the experimental part:
(§2) S. dublin (Lane), S. aureus (Rosenbach), P. acnes, ATCC 6919, E. coli K12 TOP10, and E. coli K12 55099 (protease neg.) bacterial strains were tested in the microbial inhibition assays described hereafter. The S. dublin (Lane), and S. aureus (Rosenbach) strains are available from ATCC (Staphylococcus aureus subsp. aureus Rosenbach (Number: 13150) and Salmonella choleraesuis serotype dublin (Number: 39184)). The strain of P. acnes was purchased from ATCC (strain #6919) (Manassas, Va.). The E. coli K12 strains TOP 10 and 55099 were purchased from Invitrogen (Carlsbad, Calif.) and ATCC respectively. HeLa cells were purchased from ATCC (CCL2). Tryptic soy broth (TSB), Brucella broth, reinforced Clostridial broth and agar were purchased from Becton & Dickinson (distributed by VWR, West Chester, Pa.). All plastic consumables were purchased from VWR (West Chester, Pa.). […]
(§3) The minimum inhibitory concentration (MIC) of peptide compositions for S. aureus, S. dublin and E. coli was determined in a broth microdilution assay. […] The MIC for each peptide for each microorganism was determined by three methods. The growth of bacteria was directly determined by measuring the absorption at 600 nm using a Versamax microplate reader (Molecular Devices). […] After incubation for 16 hours at 37° C. bacterial growth was evaluated and documented (Alpha Innotech gel documentation system).

The subject of data set [9] is E. coli K12 TOP10. Particulars: 3 log or greater reduction in bacterial growth over 16 hours.
The subject of data set [10] is Escherichia coli ATCC 25922. Kind of data set: MIC, NCCLS M7-A6 broth microdilution (Table 9, no superscript). Type of data set: cell-based. Particulars: ATCC 25922. The method in brief: as §1
For data set [11], the system named is Staphylococcus epidermidis ATCC 12228. The data set is described as above. Type of data set: cell-based. The note with it: ATCC 12228. The method in brief:
as §1

For data set [12], the system named is Pseudomonas aeruginosa ATCC 27853. The data set is described as above. Type of data set: cell-based. Particulars: ATCC 27853. The method in brief: as §1
Data set [13] has as its system Propionibacterium acnes ATCC 6919. The data set can be described thus: MIC, agar dilution method NCCLS M11-A6, Brucella agar, anaerobic (Table 9, superscript c). It counts as cell-based. The note with it: letter c: agar dilution NCCLS M11-A6, Brucella agar, anaerobic. The method in brief:
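MIC taken as the lowest peptide level giving no colonies on the plate. Plates were inoculated to 1.5×10^8 CFU/milliliter, then kept anaerobically at 37° C. for 48-96 hours; method follows NCCLS M11-A6.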
(In agar dilution the substance is mixed into plates at graded concentrations.)

Data set [14] deals with human red blood cells. Type of data set: cell-based. The note with it: red cells of human. As for the experimental part: Hemoglobin-release assays with human red blood cells (RBC) were performed to determine the hemolytic activity of granulysin peptides. Human RBCs (San Diego Blood Bank, San Diego, Calif.) were washed three times in PBS buffer (8 mM Na2HPO4, 1.5 mM KH2PO4, 140 mM NaCl and 2.7 mM KCl, pH 7.4), resuspended in PBS to the concentration of 5% (v/v). The RBC were then exposed to different peptide compositions at various concentrations (100-6.25 micromolar) and incubated at 37° C. for 60 minutes in a total volume of 120 microliters. Every experiment included a negative control without peptide and maximum control treated with 5% TX-100 for complete hemoglobin release. Samples were centrifuged for 1 minute at 13,000 g to remove debris and intact cells. The hemoglobin-containing supernatant was removed and transferred to a microwell plate. Hemoglobin release was quantified at A540 using a Versamax plate reader (Molecular Devices). The degree of hemolysis is expressed as percentage of hemolysis compared to the […], using the following formula: % hemolysis=(sample−neg. control)/(max. control−neg. control)×100.

For data set [15], the system named is S. dublin (Lane). Kind of data set: Broth microdilution assay for MIC, Table 4A. It counts as cell-based, Salmonella dublin. Particulars: 3 log or greater reduction in bacterial growth over 16 hours. As to the method:
as §2, §3

Data set [16] deals with E. coli K12 55099 (protease neg.). Particulars: 3 log or greater reduction in bacterial growth over 16 hours.

With `CSCC[C@@H](NC(=O)[C@@H](Cc1ccccc1)NC(=O)[C@@H](CC(N)=O)NC(=O)[C@@H](CCCNC(=N)N)NC(=O)[C@@H](C)NC(=O)[C@H](NC(=O)[C@@H](CC(=O)O)NC(=O)[C@@H](CCCNC(=N)N)NC(=O)[C@@H](Cc1c[nH]c2ccccc12)NC(=O)[C@@H](CCCNC(=N)N)NC(=O)[C@@H](CO)NC(=O)[C@@H](CCCNC(=N)N)NC(C)=O)C(C)C)C(=O)N[C@H](CCCNC(=N)N)C(N)=O` [Peptide 96, Ac-rsrwrdvarnfmr-NH2] (Ac-[dR][dS][dR][dW][dR][dD][dV][dA][dR][dN][dF][dM][dR]-NH2), the “MIC P. acnes” value in data set [1] was 12.5 µg·days/mL. In addition, the “MIC S. dublin” value in data set [2] is more than 64 µg/mL. Moreover, the “MIC C. albicans” value in data set [3] stood at 8e ug/mL. Further, in data set [4], the “MIC P. aeruginosa” value was 50b ug/mL. Further, the “MIC S. aureus” value in data set [5] was more than 64 µg/mL. In addition, the “MIC S. epidermidis” value in [6] is 12.5b ug/mL.

For the molecule `CSCC[C@@H](NC(=O)[C@@H](Cc1ccccc1)NC(=O)[C@@H](CC(N)=O)NC(=O)[C@@H](CCCNC(=N)N)NC(=O)[C@@H](CO)NC(=O)[C@@H](Cc1c[nH]c2ccccc12)NC(=O)[C@@H](CC(=O)O)NC(=O)[C@@H](CCCNC(=N)N)NC(=O)[C@@H](Cc1c[nH]c2ccccc12)NC(=O)[C@@H](CCCNC(=N)N)NC(=O)[C@@H](CO)NC(=O)[C@@H](CCCNC(=N)N)NC(=O)CNC(=O)[C@H](NC(=O)[C@@H](CCCNC(=N)N)NC(=O)[C@@H](CO)NC(=O)[C@H](NC(=O)[C@@H](CCCNC(=N)N)NC(=O)[C@H](NC(C)=O)[C@H](C)O)C(C)C)[C@H](C)O)C(=O)N[C@H](CCCNC(=N)N)C(=O)N[C@H](CCCN)C(=O)N[C@H](CCCN)C(=O)N[C@H](CCCN)C(=O)N[C@H](CCCN)C(=O)N[C@H](CCCN)C(=O)N[C@H](CCCN)C(=O)N[C@H](CCCN)C(=O)N[C@H](CCCN)C(N)=O` [Peptide 35, Ac-trvsrtgrsrwrdwsrnfmroooooooo-NH2] (Ac-[dT][dR][dV][dS][dR][dT]G[dR][dS][dR][dW][dR][dD][dW][dS][dR][dN][dF][dM][dR][dOrn][dOrn][dOrn][dOrn][dOrn][dOrn][dOrn][dOrn]-NH2), in [1], the “MIC P. acnes” value is 6 µg·days/mL. Also, the “MIC S. dublin” value in data set [2] was more than 64 µg/mL. In addition, the “P. acnes recovered from mouse skin” value in data set [7] was 4.5 × 10^4 cfu/ml. For the same molecule, the “MIC S. aureus” value in data set [5] is more than 64 µg/mL.

Regarding `CCCCCCCCCCCC(=O)N[C@H](C(=O)N[C@@H](CCCNC(=N)N)C(=O)N[C@H](C(=O)N[C@@H](CO)C(=O)N[C@@H](CCCNC(=N)N)C(=O)N[C@H](C(=O)NCC(=O)N[C@@H](CCCNC(=N)N)C(=O)N[C@@H](CO)C(=O)N[C@@H](CCCNC(=N)N)C(=O)N[C@@H](Cc1c[nH]c2ccccc12)C(=O)N[C@@H](CCCNC(=N)N)C(=O)N[C@@H](CC(=O)O)C(=O)N[C@@H](Cc1c[nH]c2ccccc12)C(=O)N[C@@H](CO)C(=O)N[C@@H](CCCNC(=N)N)C(=O)N[C@@H](CC(N)=O)C(=O)N[C@@H](Cc1ccccc1)C(=O)N[C@@H](CCSC)C(=O)N[C@@H](CCCNC(=N)N)C(=O)N[C@@H](CCCCN)C(N)=O)[C@@H](C)O)C(C)C)[C@@H](C)O` [Peptide 64] (Lauroyl-TRVSRTGRSRWRDWSRNFMRK-NH2), the “Minimum inhibitory concentration (MIC) S. aureus” value in data set [8] turned out to be 2 µM (≈ 5.84 µg/mL). In addition, the “Minimum inhibitory concentration (MIC) E. coli Top10” value in data set [9] came out at 2 µM (≈ 5.84 µg/mL). For the same molecule, the “MIC E. coli” value in data set [10] was 64 µg/mL (≈ 21.9 µM). Also, the “MIC S. epidermidis” value in [11] worked out at 1 µg/mL (≈ 0.342 µM). In addition, the “MIC S. dublin” value in data set [2] was found to be 16 µg/mL (≈ 5.48 µM). The “MIC P. aeruginosa” value in data set [12] was more than 64 µg/mL. Besides, the “MIC C. albicans” value in [3] was 32e ug/mL. In addition, the “MIC P. acnes” value in data set [13] was more than 64c ug/mL. Further, the “Hemolytic effect on human red blood cells” value in [14] (6.25 Micromolar) is given as 14%; in [14] (12.5 Micromolar) it was 15%; in [14] (25 Micromolar) it was 29%; in [14] (50 Micromolar) it was 46%; in data set [14] (100 Micromolar) it was 81%. Also, the “MIC S. aureus” value in data set [5] came out at 8 µg/mL (≈ 2.74 µM). In addition, the “Minimum inhibitory concentration (MIC) S. dublin” value in [15] is 8 µM (≈ 23.4 µg/mL). For the same molecule, in [16], the “Minimum inhibitory concentration (MIC) E. coli 55099” value was 1 µM (≈ 2.92 µg/mL).
